Assay: Human HepG2 cell viability assay in 384 well format
Type: toxicity, cell-based
Parameters: dose 125 nL, time 70.5 hour; concentration not given beside the values
Conditions: HepG2 cells, read-out: Inhibition

Row | SMILES | cytotoxicity at 70.5 h [%]
1 | COc1ccc2c(c1)CCN(Cc1cscn1)CC2 | -0.57
2 | Cc1cc(CN(C)CCC(O)c2ccccc2)no1 (centres undefined) | 1.83
3 | CC(C)c1nn(C)c(N(C)C)c1CNCCC(=O)N(C)C | -2.45
4 | Cc1cc(C(=O)N2CCNC(=O)CC2)c(C)n1CC(F)(F)F | 23.5
5 | CCC(CNC(=O)CCn1cncn1)N1CCc2ccccc2C1 (centres undefined) | 7.08
6 | CC(O)CN1CCN(Cc2coc(-c3ccc(Cl)cc3)n2)CC1 (centres undefined) | -5.87
7 | Cc1ccc(CN2Cc3c(cnn3C)C(COCC3CC3)C2)s1 (centres undefined) | 35.1
8 | O=C(N1CCCC1)N1CCC2(CCCN(CCOc3ccccc3)C2)C1 (centres undefined) | 26.5
9 | CCc1nnc(NC(=O)NCCN(C)C(=O)OC(C)(C)C)s1 | -9.9
10 | CCn1nc2c(cc1=O)CN(Cc1nc(-c3ccccn3)no1)CC2 | -1.12
11 | COCC1(C(=O)N[C@H]2CN(c3nnc(C)s3)C[C@@H]2C2CC2)CCC1 | 7.64
12 | CC(NC(=O)NCc1ccccn1)c1cccs1 (centres undefined) | -13.9
13 | NC(=O)c1nc2c(s1)CCN(C(=O)Nc1ccccc1)CC2 | 9.18
14 | COc1ccccc1C1(CNc2nnc(C)c(C)c2C#N)CCCC1 | 2.69
15 | O=C1N(Cc2ccccn2)C[C@H]2CN(S(=O)(=O)c3ccccc3)CCN12 | -0.174
16 | CC(C(=O)N1CCN(c2ccccc2Cl)CC1)n1cncn1 (centres undefined) | 10.3
17 | O=C(c1cc(F)cc(Cl)c1)N1C[C@@H]2CC[C@H](C1)N(Cc1ccccc1)C2 | -3.75
18 | CCOc1ccccc1C(=O)N1CCCC(c2nccn2CCOC)C1 (centres undefined) | 10.7
19 | CC(C)NC(=O)CNC(C)COc1ccccc1 (centres undefined) | -12.1
20 | Cc1nc(CN2CC(Cc3ccccc3)CC2=O)no1 (centres undefined) | -17.4
21 | CC1CN(C)CCN1C(=O)c1ccc(-n2cnnc2)cc1 (centres undefined) | -1.59
22 | CCN1CCC(NC(=O)CN2CCCCC2Cn2cc(C)cn2)CC1 (centres undefined) | 53.1
23 | Cc1nn(C)cc1CCC(=O)N1CCCC(n2cncn2)C1 (centres undefined) | 6.4

Row | SMILES | cytotoxicity at 70.5 h [%]
24 | C[C@@H]1CN(CCC(=O)NCc2ccccc2Cl)C[C@@]1(O)C1CC1 | -2.59
25 | CCC(C)NC(=O)CCNC(=O)Nc1ccc(-n2cncn2)c(F)c1 (centres undefined) | -10.1
26 | c1ccc(CCc2noc(CN3CCC(N4CCSCC4)CC3)n2)cc1 | -2.58
27 | CCc1noc(C(C)N(C)CC(=O)Nc2ccc(C)cc2)n1 (centres undefined) | -4.51
28 | Cc1ccc(OCC(C)NS(C)(=O)=O)cc1 (centres undefined) | -4.31
29 | Cc1ccc(-c2noc(CN3CCc4nn(C)c(=O)cc4C3)n2)cc1 | -4.24
30 | O=C(c1ccncc1Cl)N1CCN(Cc2ccco2)C(CCO)C1 (centres undefined) | 16.2
31 | COc1ccc(CNC[C@H]2Cn3ccnc3CO2)cn1 | -2.5
32 | CC(C)N(C)Cc1nnn2c1CN(Cc1cccnc1)CCC2 | -101
33 | c1ccc2c(OCCN3CCn4c(nnc4C4CC4)C3)cccc2c1 | 2.06
34 | CCN(CC)S(=O)(=O)N1CCCC(c2cccc(C(=O)O)c2)C1 (centres undefined) | -6.99
35 | O=C(c1cn(CC(=O)N2CCCCCC2)c2ccccc12)C1CC1 | -7.67
36 | CCc1nnsc1C(=O)N1CCN(CC(O)CC)CC1 (centres undefined) | -10.3
37 | O=C(c1ccco1)N(CC(F)(F)F)C1CCOCC1 | -7.66
38 | O=C(c1cccnc1)N1CCCC1C1CCN(Cc2ccccc2)CC1 (centres undefined) | -13.7
39 | COc1ccc(C(=O)NS(=O)(=O)c2cccc(C#N)c2)cc1 | 13.5
40 | COCc1cccc(CNCc2c(C)nn(C)c2N(C)C)c1 | 42.4
41 | CCn1cc(NC(=O)C2CCN(CCOC(C)C)CC2)cn1 | -1.36
42 | Cc1cccc(C)c1NC(=O)CNC(C)Cc1ccsc1 (centres undefined) | 32.9
43 | O=c1[nH]c2c(-c3ccccn3)nsc2c(=O)n1CC1CCCO1 (centres undefined) | -11.7
44 | CN(Cc1ccc(OC(F)F)cc1)C(=O)CS(=O)(=O)c1ccc(Cl)cc1 | -9.26
45 | Cc1oncc1C(=O)N1CC[C@H]2[C@H](C[C@@H](CN(C)C)N2CC2CC2)C1 | -0.907
46 | c1ccc(C2=NOC3(CCN(Cc4c[nH]c5ccccc45)CC3)C2)cc1 | 11.1

Row | SMILES | cytotoxicity at 70.5 h [%]
47 | Cc1nc(CCCNC(=O)c2coc(CN3CCOCC3)c2)sc1C | -0.625
48 | CC(C)c1cc(C(=O)N2CCN(Cc3ccc(C#N)cc3)CC2)n[nH]1 | -4.18
49 | Cc1oncc1C(=O)N1CC[C@H]2C[C@H](c3ccncn3)O[C@@H]2C1 | 7.58
50 | COCCn1c2c(ccc1=O)CCN(C(=O)NC1CC1)CC2 | -3.9
51 | CCN(C)c1ncnc2c1CCN(C(=O)c1ccsc1)CC2 | -0.977
52 | CS(=O)(=O)Cc1noc(CN2CCc3c(Cl)cccc3C2)n1 | -79.4
53 | O=C(c1sccc1-n1cnnn1)N1CCC2(CCCCC2)CC1 | 11.8
54 | COc1ccc(OC)c(C(O)CN2CCN(c3cccc(C)c3)CC2)c1 (centres undefined) | 7.32
55 | CC(C)OCCCNC(=O)CN1CCN(c2nccs2)CC1 | -4.41
56 | CCCc1nc(CN(CC)C(=O)c2ccc3ncsc3c2)no1 | -0.393
57 | Cc1cccc(CNC(=O)CC2CCN(Cc3ccccn3)CC2)n1 | -1.17
58 | CCOc1ncccc1C(=O)N1CC=C(c2ccc(O)cc2)CC1 | -6.39
59 | COCCNC(=O)Cn1ccc2ccc(F)cc21 | -3.63
60 | Cc1ncc(CN2CCCC2)c2cc(C(=O)c3ccc(Br)cc3)oc12 | -14.3
61 | COc1cccc(N2CCN(CC(O)c3cc(C)ccc3C)CC2)c1 (centres undefined) | 30.4
62 | CC(O)c1cn(Cc2ccc(Cl)cc2)nn1 (centres undefined) | -6.41
63 | COc1ccc(OC)c(-n2cnnc2C)c1 | -3.42
64 | Cc1ccc(NC(=O)[C@H]2C[C@H](C(=O)O)CN(CC3CC3)C2)cn1 | -21.8
65 | CC1(C)[C@H](Cc2cc(CO)on2)C[C@@H]1NCc1ccc(CO)o1 | 14.7
66 | Fc1cnc(N2CCc3nnc(COc4ccccn4)n3CC2)nc1 | -3.38
67 | CCn1c(CC2CCN(C(=O)c3ccnn3C)CC2)n[nH]c1=O | -6.64
68 | O=C(CCc1ccc(F)cc1)NCc1ccnc(NC2CC2)c1 | -2.2
69 | O=C(Cc1ccon1)N1CCN(c2ccncc2Cl)CC1 | 5.48

Row | SMILES | cytotoxicity at 70.5 h [%]
70 | Cc1cc(C)c(CNC(=O)NCc2ccc3c(c2)CCC3)c(=O)[nH]1 | -10.5
71 | COCCOc1ccc(NC(=O)N2CCCC2c2ccncc2)cn1 (centres undefined) | -11.8
72 | CCN(CCC#N)Cn1ncc2cn(-c3ccccc3)nc2c1=O | -2.4
73 | CN(Cc1ccccc1F)C(=O)c1cc(Cl)c[nH]1 | -2.89
74 | CCN(CC)C(=O)c1nnn(-c2ccc(C)cc2)c1C1CC1 | -7.41
75 | Cc1nc(CN(C)C2CCN(Cc3c(C)noc3C)C2)no1 (centres undefined) | -8.91
76 | CCc1c(-c2ccccc2)nc2c(c(C)c(C)n2CCN(C)C)c1N | 15.2
77 | CCc1ocnc1C(=O)N1CCOC(c2nc(C)n[nH]2)C1 (centres undefined) | -1.72
78 | CCNc1nc(C)c(C(=O)N(C)Cc2nc(CC)no2)s1 | -34.8
79 | COc1ccc(C2Nc3ccccc3NC3=C2C(=O)NC3)cc1OC (centres undefined) | -7.99
80 | CNc1nc2c(s1)C(=O)CN(C(=O)[C@@H](N)Cc1cccc(OC)c1)C2 | -5.78
81 | Cc1nonc1CN(C)Cc1c[nH]nc1-c1ccc(F)cc1F | -14.1
82 | Cc1n[nH]c(=O)c2c(NC(=O)CN3CCC(O)CC3)oc(C)c12 | 7.13
83 | NC(=O)COc1ccc(CNCc2ccc(F)c(F)c2)cc1 | 0.155
84 | Cc1nc2ccccc2nc1CN1CCc2c(nc(C3CC3)n2C)C1 | -0.539
85 | c1cnn(CC2CN(c3ncnc4sccc34)CCO2)c1 (centres undefined) | -4.77
86 | O=C(NCCO)C1(Cc2ccccc2-c2ccncc2)CCOCC1 | -7.35
87 | CCCn1ccnc1CN1CCC(Oc2ccc(Cl)cc2)(C(=O)O)CC1 | -10.4
88 | O=C(C1CCOC1)N1CCc2ncnc(NC3CCC3)c2CC1 (centres undefined) | -2.47
89 | CSCCC(NC(=O)c1ccc2ccccc2n1)C(=O)N(C)C (centres undefined) | 18
90 | N#Cc1cccc(C(=O)Nc2ccc([C@@H](O)[C@H]3COCC(=O)N3)cc2)c1 | -9.14
91 | CCN(Cc1cc(=O)n2cc(Br)ccc2n1)C1CC1 | -7.36
92 | CCc1[nH]ncc1C(=O)N1CCCC(n2cccn2)C1 (centres undefined) | 3.94

Row | SMILES | cytotoxicity at 70.5 h [%]
93 | O=C1N(CCC2CCCCC2)CCCC1(O)CNCCc1ccccc1 (centres undefined) | 0.277
94 | CCCc1nc(C)cc(N2CCNC(C(=O)Nc3ccc(C)nc3)C2)n1 (centres undefined) | 19.3
95 | CCN(Cc1cc(F)c(OC)c(Cl)c1)Cc1nc(COC)no1 | 12.1
96 | Fc1cccc(CN2CCC[C@H](Cn3nnc(-c4ccccn4)n3)C2)c1 | -4.05
97 | O=C(C1CC1)N1CCC2(CC1)COCCN2Cc1ccc(F)cc1 | 0.119
98 | CNc1nc(N2CCN(Cc3ccsc3)C(CCO)C2)nc2c1CCC2 (centres undefined) | -1.63
99 | O=C(c1csc2nc(-c3ccc(Cl)cc3)cn12)N1CCCC(CO)C1 (centres undefined) | -5.49
100 | CC(C)(C(=O)NCC(=O)NC1CC1)c1ccccc1F | 2.62
101 | CCOC(CC)C(=O)NCCC(=O)N1CCN(c2ccccn2)CC1 (centres undefined) | -14.2
102 | CC(C)N(C)Cc1cncc2c1CCN(C(=O)c1ccc[nH]1)C2 | -1.2
103 | Cc1ncc2c(n1)CCCC2NC(=O)c1ccccc1Cn1cncn1 (centres undefined) | 18.1
104 | COc1ncccc1C(=O)N1CC[C@H]2C[C@H](c3ccncn3)O[C@@H]2C1 | -14.1
105 | Cc1ccc(OCCC(=O)N2CCC(c3nncn3C)CC2)c(C)c1 | 1.76
106 | Cc1noc(C)c1CN(C)c1nccc(C(F)(F)F)n1 | 4.31
107 | CCS(=O)(=O)N1C[C@@H](O)[C@H](Oc2cccc(F)c2)C1 | -9.71
108 | CCOc1ccc(CN(CCOC)c2nc(C)nc3oc(C)nc23)cc1 | -12.6
109 | Cc1nc(C)c(CNCc2nnc3n2CCCC3C(F)(F)F)s1 (centres undefined) | -8.57
110 | Cc1nn2cc(CCNC(=O)c3cc(C(C)C)no3)nc2s1 | 12.6
111 | Cc1nc(CSCCC(=O)NCc2ccncc2)cs1 | -6.44
112 | Cc1ccc(Cl)c(NC(=O)NC2(C)CCOC2)c1 (centres undefined) | -5.5
113 | Cc1ncncc1C(=O)N1CCCC1c1c(C)nn(C)c1Cl (centres undefined) | -10.6
114 | O=S(=O)(NCc1ccc(S(=O)(=O)N2CCCC2)s1)c1ccc(Cl)c(Cl)c1 | -22.7
